Holding throughout (format): cell-based
Experiment [1] deals with Ba/F3-EGFR-WT cells (BA/F3 wild type EGFR) (Homo sapiens, UniProt P00533). Description: BA/F3 (wild type) proliferation assay, Cell Titer-Glo. To be noted: Table 7; plated with 10 ng/mL EGF, without IL-3, 48 h; read-out: BA/F3 (wild type) IC50. As for the experimental part:
(§1) Plates were incubated at 37° C. for 48 h. Retrovirus was harvested by filtering the media supernatant through a 0.45 μm filter.
Ba/F3 cells purchased from DSMZ were grown in RPMI+10% FBS+10 ng/mL IL-3 and infected with filtered retroviral supernatant at a 1:2 dilution. Polybrene was added to a concentration of 8 μg/mL, plates were spun for 90 min, and incubated overnight at 37° C. 2 μg/mL puromycin was added to the infected cells 24 h after infection and cells were continually grown in the presence of puromycin and 10 ng/mL IL-3. Following stably expressing Ba/F3 cell lines were generated: Ba/F3-EGFR-WT.
For cell survival assays, Ba/F3 cells were grown to a density of 1-2 million cells per mL, spun down and resuspended in media without IL-3, and replated at a concentration 200,000-500,000 cells per mL. The cells ectopically expressing WT EGFR were plated with 10 ng/mL Millipore Culture grade EGF.
24 hours later, cells were plated in 30 μL in a 384 well plate at a concentration of 3200 cells per well for cells assayed in the absence of IL-3. 100 nL of compound was added to each well using a 100 nL pin head, and plates were incubated at 37° C. for 48 h.
Cell viability was measured by adding 30 μL of Cell Titer-Glo Luminescent Cell Viability Reagent. Plates were sealed with Perkin Elmer Top-Seal, inverted several times to mix, and immediately centrifuged at 1000 rpm for 2 min. Plates were incubated in low light conditions for 8-10 min and luminescence was measured.
In general terms: In ATP-based viability assays light output follows the ATP content of the culture.

Experiment [2] relates to Ba/F3-EGFR-delLREA cells (EGFR del19/delLREA (746-750), E746_A750del). The experiment in a line: BA/F3 EGFR del19/delLREA (746-750) (E746_A750del) cell survival assay, Cell Titer-Glo. As for the experimental part: as §1
(§2) Ba/F3 cells purchased from DSMZ were grown in RPMI+10% FBS+10 ng/mL IL-3 and infected with filtered retroviral supernatant at a 1:2 dilution. Polybrene was added to a concentration of 8 μg/mL, plates were spun for 90 min, and incubated overnight at 37° C. 2 μg/mL puromycin was added to the infected cells 24 h after infection and cells were continually grown in the presence of puromycin and 10 ng/mL IL-3. Following stably expressing Ba/F3 cell lines were generated: Ba/F3-EGFR-L858R, Ba/F3-EGFR-delLREA, (Ba/F3-vector-control).
(§3) For cell survival assays, Ba/F3 cells were grown to a density of 1-2 million cells per mL, spun down and resuspended in media without IL-3, and replated at a concentration 200,000-500,000 cells per mL. The cells ectopically expressing pBABEpuro empty vector were plated with 10 ng/mL IL-3.
(§4) 2 days later, cells were plated in 50 μL in a 384 well plate at a concentration of 4000 cells per well for cells assayed in the absence of IL-3 and 2000 cells per well for cells (pBABE puro empty vector) assayed in the presence of IL-3. 100 nL of compound was added to each well using a 100 nL pin head, and plates were incubated at 37° C. for 48 h.
(§5) Cell viability was measured by adding 20 μL of Cell Titer-Glo Luminescent Cell Viability Reagent diluted 1:3 in PBS. Plates were sealed with Perkin Elmer Top-Seal, inverted several times to mix, and immediately centrifuged at 1000 rpm for 2 min. Plates were incubated in low light conditions for 8-10 min and luminescence was measured.

A further experiment concerns the target Ba/F3-EGFR-L858R cells (Homo sapiens, UniProt P00533, L858R, cells depend on it). Description: BA/F3 EGFR L858R cell survival assay, Cell Titer-Glo. To be noted: read-out: BA/F3 (EGFR L858R) IC50. As for the experimental part: as §1, §2, §3, §4, §5
Experiment [3] has as its target Ba/F3-EGFR-D770_N771 insNPG cells (Homo sapiens, UniProt P00533, INS772GNP, cells depend on it). The experiment in a line: BA/F3 (insNPG) proliferation, EGFR Exon20 insertion mutation. To be noted: Table 9; EGFR Exon20 insertion mutations; read-out: BA/F3 (insNPG) IC50. As to the method: as §1
as §2, with “Ba/F3-EGFR-V769_D770 insASV, Ba/F3-EGFR-D770_N771 insNPG, Ba/F3-EGFR-N771_P772 insH, Ba/F3-EGFR-H773_V774 insNPH, Ba/F3-EGFR-D770_N771 insSVD C797S, Ba/F3-EGFR-E746_A750del C797S, Ba/F3-EGFR-L858R C797S, Ba/F3-EGFR L861Q and Ba/F3-ERBB2-A775_G776insYVMA” for “Ba/F3-EGFR-L858R, Ba/F3-EGFR-delLREA,”

The target in experiment [4] is Ba/F3-EGFR-V769_D770 insASV cells (Homo sapiens, UniProt P00533, DUP767-769, cells depend on it). Description: BA/F3 (ASV) proliferation, EGFR Exon20 insertion mutation. To be noted: Table 9; EGFR Exon20 insertion mutations; read-out: BA/F3 (ASV) IC50. As for the experimental part:
as §1
as §2, with “Ba/F3-EGFR-V769_D770 insASV, Ba/F3-EGFR-D770_N771 insNPG, Ba/F3-EGFR-N771_P772 insH, Ba/F3-EGFR-H773_V774 insNPH, Ba/F3-EGFR-D770_N771 insSVD C797S, Ba/F3-EGFR-E746_A750del C797S, Ba/F3-EGFR-L858R C797S, Ba/F3-EGFR L861Q and Ba/F3-ERBB2-A775_G776insYVMA” for “Ba/F3-EGFR-L858R, Ba/F3-EGFR-delLREA,”

The next experiment has as its system Ba/F3-EGFR L861Q cells. The experiment in a line: BA/F3 (EGFR L861Q) proliferation, uncommon EGFR mutation. To be noted: Table 10, classical activating and uncommon EGFR mutations. As for the experimental part:
as §1
as §2, with “Ba/F3-EGFR-V769_D770 insASV, Ba/F3-EGFR-D770_N771 insNPG, Ba/F3-EGFR-N771_P772 insH, Ba/F3-EGFR-H773_V774 insNPH, Ba/F3-EGFR-D770_N771 insSVD C797S, Ba/F3-EGFR-E746_A750del C797S, Ba/F3-EGFR-L858R C797S, Ba/F3-EGFR L861Q and Ba/F3-ERBB2-A775_G776insYVMA” for “Ba/F3-EGFR-L858R, Ba/F3-EGFR-delLREA,”

Experiment [5] relates to Ba/F3-EGFR-D770_N771 insSVD C797S cells. Description: BA/F3 (EGFR D770_N771 insSVD C797S) proliferation, acquired resistance. To be noted: Ba/F3 EGFR-D770-N771ins_SVD; Table 11; acquired resistance space. As to the method: as §1
as §2, with “Ba/F3-EGFR-V769_D770 insASV, Ba/F3-EGFR-D770_N771 insNPG, Ba/F3-EGFR-N771_P772 insH, Ba/F3-EGFR-H773_V774 insNPH, Ba/F3-EGFR-D770_N771 insSVD C797S, Ba/F3-EGFR-E746_A750del C797S, Ba/F3-EGFR-L858R C797S, Ba/F3-EGFR L861Q and Ba/F3-ERBB2-A775_G776insYVMA” for “Ba/F3-EGFR-L858R, Ba/F3-EGFR-delLREA,”

Experiment [6] concerns Ba/F3-EGFR-E746_A750del C797S cells. Description: BA/F3 (EGFR E746_A750del C797S) proliferation, acquired resistance. To be noted: Table 11, acquired resistance space. As to the method:
as §1
as §2, with “Ba/F3-EGFR-V769_D770 insASV, Ba/F3-EGFR-D770_N771 insNPG, Ba/F3-EGFR-N771_P772 insH, Ba/F3-EGFR-H773_V774 insNPH, Ba/F3-EGFR-D770_N771 insSVD C797S, Ba/F3-EGFR-E746_A750del C797S, Ba/F3-EGFR-L858R C797S, Ba/F3-EGFR L861Q and Ba/F3-ERBB2-A775_G776insYVMA” for “Ba/F3-EGFR-L858R, Ba/F3-EGFR-delLREA,”

In experiment [7] the test system is Ba/F3-EGFR-L858R C797S cells. The experiment in a line: BA/F3 (EGFR L858R C797S) proliferation, acquired resistance. To be noted: Table 11, acquired resistance space. As to the method: as §1
as §2, with “Ba/F3-EGFR-V769_D770 insASV, Ba/F3-EGFR-D770_N771 insNPG, Ba/F3-EGFR-N771_P772 insH, Ba/F3-EGFR-H773_V774 insNPH, Ba/F3-EGFR-D770_N771 insSVD C797S, Ba/F3-EGFR-E746_A750del C797S, Ba/F3-EGFR-L858R C797S, Ba/F3-EGFR L861Q and Ba/F3-ERBB2-A775_G776insYVMA” for “Ba/F3-EGFR-L858R, Ba/F3-EGFR-delLREA,”

Experiment [8] addresses Ba/F3-ERBB2-A775_G776insYVMA cells (Homo sapiens, UniProt P04626, DUP772-775, cells depend on it). The experiment in a line: BA/F3 (ERBB2 A775_G776 insYVMA) proliferation. To be noted: Table 12; read-out: BA/F3 (ERBB2 A775_G776 insYVMA) IC50. As for the experimental part: as §1
as §2, with “Ba/F3-EGFR-V769_D770 insASV, Ba/F3-EGFR-D770_N771 insNPG, Ba/F3-EGFR-N771_P772 insH, Ba/F3-EGFR-H773_V774 insNPH, Ba/F3-EGFR-D770_N771 insSVD C797S, Ba/F3-EGFR-E746_A750del C797S, Ba/F3-EGFR-L858R C797S, Ba/F3-EGFR L861Q and Ba/F3-ERBB2-A775_G776insYVMA” for “Ba/F3-EGFR-L858R, Ba/F3-EGFR-delLREA,”

[9] abbreviates: Table 8, without IL-3, 48 h, read-out: BA/F3 (EGFR del19/delREA (746-750) IC50).

Structures are written as SMILES. Like-named read-outs stand apart in the source and are kept apart here.

In patent US12403135B2, “4H-pyrrolo[3,2-c]pyridin-4-one derivatives” (Bayer Aktiengesellschaft, priority 2019, dated 2025) one finds GI50 and IC50 data, which are given here for 3 molecules.

Sequence of Ba/F3-EGFR-L858R cells (P00533 whole entry L858R): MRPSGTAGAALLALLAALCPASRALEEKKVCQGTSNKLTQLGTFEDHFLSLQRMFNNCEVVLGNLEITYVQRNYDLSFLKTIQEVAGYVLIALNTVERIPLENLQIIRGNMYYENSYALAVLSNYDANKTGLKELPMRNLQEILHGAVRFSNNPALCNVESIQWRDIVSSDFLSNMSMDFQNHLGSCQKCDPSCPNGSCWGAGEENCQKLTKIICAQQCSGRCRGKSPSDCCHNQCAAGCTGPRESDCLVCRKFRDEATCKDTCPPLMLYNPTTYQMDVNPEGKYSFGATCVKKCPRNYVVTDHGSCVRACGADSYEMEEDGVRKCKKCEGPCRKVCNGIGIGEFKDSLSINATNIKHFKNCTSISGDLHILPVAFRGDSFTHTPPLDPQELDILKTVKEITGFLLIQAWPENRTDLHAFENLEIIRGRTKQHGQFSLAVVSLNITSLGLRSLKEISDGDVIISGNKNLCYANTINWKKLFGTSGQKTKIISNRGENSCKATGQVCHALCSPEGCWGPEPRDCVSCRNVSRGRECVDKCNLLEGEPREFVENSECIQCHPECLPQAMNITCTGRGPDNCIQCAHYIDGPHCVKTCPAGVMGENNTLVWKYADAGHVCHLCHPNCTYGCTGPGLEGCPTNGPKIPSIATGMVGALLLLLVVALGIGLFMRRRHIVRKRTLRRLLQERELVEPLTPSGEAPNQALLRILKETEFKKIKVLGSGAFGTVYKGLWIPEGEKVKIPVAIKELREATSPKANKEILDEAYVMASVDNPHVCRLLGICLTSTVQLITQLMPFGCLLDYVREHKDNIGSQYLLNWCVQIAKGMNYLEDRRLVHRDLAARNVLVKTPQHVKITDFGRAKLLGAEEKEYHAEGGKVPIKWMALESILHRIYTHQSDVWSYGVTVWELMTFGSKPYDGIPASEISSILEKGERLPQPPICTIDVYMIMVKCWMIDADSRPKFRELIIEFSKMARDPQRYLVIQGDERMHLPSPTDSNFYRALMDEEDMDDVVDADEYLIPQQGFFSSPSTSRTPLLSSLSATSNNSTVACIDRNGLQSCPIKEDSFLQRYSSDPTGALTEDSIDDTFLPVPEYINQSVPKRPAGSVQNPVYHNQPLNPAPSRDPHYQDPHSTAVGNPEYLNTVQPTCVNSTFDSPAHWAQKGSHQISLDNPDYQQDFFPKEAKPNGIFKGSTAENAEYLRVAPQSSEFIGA
Sequence of Ba/F3-EGFR-WT cells (BA/F3 wild type EGFR) (P00533 whole entry, change not shown): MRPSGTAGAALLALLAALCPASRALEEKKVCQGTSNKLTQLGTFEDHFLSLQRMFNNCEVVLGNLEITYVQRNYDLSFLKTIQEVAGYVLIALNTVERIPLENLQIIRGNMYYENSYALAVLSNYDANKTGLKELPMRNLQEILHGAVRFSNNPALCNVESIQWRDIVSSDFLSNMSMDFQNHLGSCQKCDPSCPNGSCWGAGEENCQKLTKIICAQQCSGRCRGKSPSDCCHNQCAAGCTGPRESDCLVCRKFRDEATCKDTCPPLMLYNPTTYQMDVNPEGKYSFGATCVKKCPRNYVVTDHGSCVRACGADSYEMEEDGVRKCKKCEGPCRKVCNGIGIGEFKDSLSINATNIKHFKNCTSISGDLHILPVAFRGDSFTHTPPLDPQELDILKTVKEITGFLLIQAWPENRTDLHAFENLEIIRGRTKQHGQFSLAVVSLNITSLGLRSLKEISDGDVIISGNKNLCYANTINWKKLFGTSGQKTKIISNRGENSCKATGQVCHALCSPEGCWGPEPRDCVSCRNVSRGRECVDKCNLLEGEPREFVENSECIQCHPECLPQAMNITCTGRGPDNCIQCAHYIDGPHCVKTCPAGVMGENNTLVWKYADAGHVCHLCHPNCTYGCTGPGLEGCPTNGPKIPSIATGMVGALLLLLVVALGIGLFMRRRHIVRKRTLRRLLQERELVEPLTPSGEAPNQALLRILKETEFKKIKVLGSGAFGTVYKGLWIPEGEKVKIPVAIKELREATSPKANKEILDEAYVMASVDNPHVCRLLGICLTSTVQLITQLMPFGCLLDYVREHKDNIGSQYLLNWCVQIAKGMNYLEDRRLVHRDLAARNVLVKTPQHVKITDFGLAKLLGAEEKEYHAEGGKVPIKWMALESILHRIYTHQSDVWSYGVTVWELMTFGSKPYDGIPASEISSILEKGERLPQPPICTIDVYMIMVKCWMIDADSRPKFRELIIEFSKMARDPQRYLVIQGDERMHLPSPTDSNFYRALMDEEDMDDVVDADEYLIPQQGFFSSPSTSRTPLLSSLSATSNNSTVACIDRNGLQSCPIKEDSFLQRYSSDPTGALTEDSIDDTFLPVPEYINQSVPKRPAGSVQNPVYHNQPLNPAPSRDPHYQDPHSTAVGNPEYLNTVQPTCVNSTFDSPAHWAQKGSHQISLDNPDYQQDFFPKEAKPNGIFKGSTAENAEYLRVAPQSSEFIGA
Sequence of Ba/F3-EGFR-V769_D770 insASV cells (P00533 with tags, fused parts or gaps DUP767-769): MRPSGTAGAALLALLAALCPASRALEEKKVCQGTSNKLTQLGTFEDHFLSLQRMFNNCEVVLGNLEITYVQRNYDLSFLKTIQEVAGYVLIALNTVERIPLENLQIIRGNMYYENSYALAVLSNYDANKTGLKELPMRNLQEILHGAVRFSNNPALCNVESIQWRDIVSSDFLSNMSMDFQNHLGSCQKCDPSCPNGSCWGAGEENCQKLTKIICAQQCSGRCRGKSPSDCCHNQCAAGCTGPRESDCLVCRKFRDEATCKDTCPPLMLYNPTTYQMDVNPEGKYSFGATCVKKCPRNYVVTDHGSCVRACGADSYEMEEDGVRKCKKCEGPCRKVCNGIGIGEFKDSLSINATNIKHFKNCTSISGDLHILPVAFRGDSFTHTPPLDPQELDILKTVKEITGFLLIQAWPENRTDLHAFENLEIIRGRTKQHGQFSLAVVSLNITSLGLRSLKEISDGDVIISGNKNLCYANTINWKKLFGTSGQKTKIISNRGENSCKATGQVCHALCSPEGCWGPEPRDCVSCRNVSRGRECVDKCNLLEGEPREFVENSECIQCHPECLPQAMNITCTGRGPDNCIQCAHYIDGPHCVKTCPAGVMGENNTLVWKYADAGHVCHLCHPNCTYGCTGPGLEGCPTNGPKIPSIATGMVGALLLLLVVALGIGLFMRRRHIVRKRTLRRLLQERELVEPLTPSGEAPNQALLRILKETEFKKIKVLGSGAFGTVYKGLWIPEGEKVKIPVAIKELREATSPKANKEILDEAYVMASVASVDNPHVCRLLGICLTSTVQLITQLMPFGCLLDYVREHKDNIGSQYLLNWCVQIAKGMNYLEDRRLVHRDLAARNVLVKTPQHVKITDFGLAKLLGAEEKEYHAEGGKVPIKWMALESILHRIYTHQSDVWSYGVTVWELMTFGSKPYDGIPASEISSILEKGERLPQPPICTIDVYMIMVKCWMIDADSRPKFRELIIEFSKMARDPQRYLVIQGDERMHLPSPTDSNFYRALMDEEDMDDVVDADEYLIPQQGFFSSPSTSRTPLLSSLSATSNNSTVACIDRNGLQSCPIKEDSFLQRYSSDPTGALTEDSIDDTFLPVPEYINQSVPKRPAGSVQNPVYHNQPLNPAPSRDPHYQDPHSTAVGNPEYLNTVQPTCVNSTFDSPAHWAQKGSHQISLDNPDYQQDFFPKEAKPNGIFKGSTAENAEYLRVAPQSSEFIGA
Sequence of Ba/F3-EGFR-D770_N771 insNPG cells (P00533 with tags, fused parts or gaps INS772GNP): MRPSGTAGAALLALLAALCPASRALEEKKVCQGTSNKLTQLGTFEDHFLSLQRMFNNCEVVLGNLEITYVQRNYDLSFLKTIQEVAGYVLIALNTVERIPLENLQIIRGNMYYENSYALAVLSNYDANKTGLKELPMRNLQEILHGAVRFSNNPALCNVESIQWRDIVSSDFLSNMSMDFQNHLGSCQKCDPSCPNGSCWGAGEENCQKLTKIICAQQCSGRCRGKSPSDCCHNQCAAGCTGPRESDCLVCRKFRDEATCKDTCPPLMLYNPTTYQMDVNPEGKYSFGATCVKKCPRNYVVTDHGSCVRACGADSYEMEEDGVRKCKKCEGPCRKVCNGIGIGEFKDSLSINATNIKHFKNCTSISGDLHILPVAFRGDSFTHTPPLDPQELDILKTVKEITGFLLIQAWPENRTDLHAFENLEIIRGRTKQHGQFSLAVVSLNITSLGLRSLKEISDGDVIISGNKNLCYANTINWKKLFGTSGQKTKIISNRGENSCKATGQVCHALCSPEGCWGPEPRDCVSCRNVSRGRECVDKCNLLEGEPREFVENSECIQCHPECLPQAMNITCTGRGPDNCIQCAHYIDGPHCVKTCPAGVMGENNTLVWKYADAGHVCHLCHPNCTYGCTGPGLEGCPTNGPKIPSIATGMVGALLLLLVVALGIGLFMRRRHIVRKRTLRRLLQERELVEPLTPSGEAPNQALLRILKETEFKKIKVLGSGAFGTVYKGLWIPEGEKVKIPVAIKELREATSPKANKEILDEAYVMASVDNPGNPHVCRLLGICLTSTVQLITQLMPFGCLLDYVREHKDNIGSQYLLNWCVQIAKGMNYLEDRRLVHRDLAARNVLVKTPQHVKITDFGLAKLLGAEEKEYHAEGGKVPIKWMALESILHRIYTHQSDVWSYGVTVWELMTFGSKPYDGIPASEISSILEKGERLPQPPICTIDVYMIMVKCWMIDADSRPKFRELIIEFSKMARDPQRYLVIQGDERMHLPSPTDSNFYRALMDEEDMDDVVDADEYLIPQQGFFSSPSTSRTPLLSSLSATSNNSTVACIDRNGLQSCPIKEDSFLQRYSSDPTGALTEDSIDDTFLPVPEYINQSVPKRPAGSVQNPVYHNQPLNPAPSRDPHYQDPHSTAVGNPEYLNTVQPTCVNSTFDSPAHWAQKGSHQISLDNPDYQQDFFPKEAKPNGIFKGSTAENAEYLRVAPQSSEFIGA

In the case of `COc1c(F)cccc1Nc1c(-c2ccncc2OCC(C)(C)OC)[nH]c2c1C(=O)NCC2` [Example 17, 3-[(3-fluoro-2-methoxyphenyl)amino]-2-[3-(2-methoxy-2-methylpropoxy)pyridin-4-yl]-1,5,6,7-tetrahydro-4H-pyrrolo[3,2-c]pyridin-4-one], the GI50 is 397 nM in experiment [1]; 1.2 nM at Ba/F3-EGFR-L858R cells (Table 8, without IL-3, 48 h); 1.49 nM on Ba/F3-EGFR-L858R cells (Table 10, classical activating and uncommon EGFR mutations); 12.8 nM in experiment [3]; 15.3 nM in [4]; 17.1 nM in [8]. Also, the IC50 in experiment [2] (setting [9]) turned out to be 0.13 nM; in [2] (Table 10, classical activating and uncommon EGFR mutations, read-out: BA/F3 (EGFR E746_A750del) IC50) it was 0.575 nM; in the experiment on Ba/F3-EGFR L861Q cells, 25.7 nM; in [5], 16.6 nM; in experiment [6] it was 0.292 nM; in [7], 1.16 nM.

On to `COC(C)(C)COc1cnccc1-c1[nH]c2c(c1Nc1cccc(F)c1OC(F)F)C(=O)NCC2` [Example 19, 3-{[2-(difluoromethoxy)-3-fluorophenyl]amino}-2-[3-(2-methoxy-2-methylpropoxy)pyridin-4-yl]-1,5,6,7-tetrahydro-4H-pyrrolo[3,2-c]pyridin-4-one], for which the GI50 in [1] amounted to 870 nM; on Ba/F3-EGFR-L858R cells (Table 8, without IL-3, 48 h) it was 4.7 nM. In experiment [2] (setting [9]), the IC50 amounted to 0.32 nM.

Turning to `COC(C)(C)COc1cnccc1-c1[nH]c2c(c1Nc1cccc(F)c1CC(F)F)C(=O)NCC2` [Example 23, 3-{[2-(2,2-difluoroethyl)-3-fluorophenyl]amino}-2-[3-(2-methoxy-2-methylpropoxy)pyridin-4-yl]-1,5,6,7-tetrahydro-4H-pyrrolo[3,2-c]pyridin-4-one], the GI50 amounted to 388 nM in experiment [1] and 3.2 nM on Ba/F3-EGFR-L858R cells (Table 8, without IL-3, 48 h). In addition, in experiment [2] (setting [9]), the IC50 is 0.26 nM.
